Measured values reported in ChEMBL document CHEMBL1201862, “PubChem BioAssay data set” (2004).
The source made the active and inactive calls.

Columns and labels:
[1] = biological target: T1, Histone-lysine N-methyltransferase NSD2 (Homo sapiens, UniProt O96028); assay type: biochemical
T1 sequence (O96028 whole entry): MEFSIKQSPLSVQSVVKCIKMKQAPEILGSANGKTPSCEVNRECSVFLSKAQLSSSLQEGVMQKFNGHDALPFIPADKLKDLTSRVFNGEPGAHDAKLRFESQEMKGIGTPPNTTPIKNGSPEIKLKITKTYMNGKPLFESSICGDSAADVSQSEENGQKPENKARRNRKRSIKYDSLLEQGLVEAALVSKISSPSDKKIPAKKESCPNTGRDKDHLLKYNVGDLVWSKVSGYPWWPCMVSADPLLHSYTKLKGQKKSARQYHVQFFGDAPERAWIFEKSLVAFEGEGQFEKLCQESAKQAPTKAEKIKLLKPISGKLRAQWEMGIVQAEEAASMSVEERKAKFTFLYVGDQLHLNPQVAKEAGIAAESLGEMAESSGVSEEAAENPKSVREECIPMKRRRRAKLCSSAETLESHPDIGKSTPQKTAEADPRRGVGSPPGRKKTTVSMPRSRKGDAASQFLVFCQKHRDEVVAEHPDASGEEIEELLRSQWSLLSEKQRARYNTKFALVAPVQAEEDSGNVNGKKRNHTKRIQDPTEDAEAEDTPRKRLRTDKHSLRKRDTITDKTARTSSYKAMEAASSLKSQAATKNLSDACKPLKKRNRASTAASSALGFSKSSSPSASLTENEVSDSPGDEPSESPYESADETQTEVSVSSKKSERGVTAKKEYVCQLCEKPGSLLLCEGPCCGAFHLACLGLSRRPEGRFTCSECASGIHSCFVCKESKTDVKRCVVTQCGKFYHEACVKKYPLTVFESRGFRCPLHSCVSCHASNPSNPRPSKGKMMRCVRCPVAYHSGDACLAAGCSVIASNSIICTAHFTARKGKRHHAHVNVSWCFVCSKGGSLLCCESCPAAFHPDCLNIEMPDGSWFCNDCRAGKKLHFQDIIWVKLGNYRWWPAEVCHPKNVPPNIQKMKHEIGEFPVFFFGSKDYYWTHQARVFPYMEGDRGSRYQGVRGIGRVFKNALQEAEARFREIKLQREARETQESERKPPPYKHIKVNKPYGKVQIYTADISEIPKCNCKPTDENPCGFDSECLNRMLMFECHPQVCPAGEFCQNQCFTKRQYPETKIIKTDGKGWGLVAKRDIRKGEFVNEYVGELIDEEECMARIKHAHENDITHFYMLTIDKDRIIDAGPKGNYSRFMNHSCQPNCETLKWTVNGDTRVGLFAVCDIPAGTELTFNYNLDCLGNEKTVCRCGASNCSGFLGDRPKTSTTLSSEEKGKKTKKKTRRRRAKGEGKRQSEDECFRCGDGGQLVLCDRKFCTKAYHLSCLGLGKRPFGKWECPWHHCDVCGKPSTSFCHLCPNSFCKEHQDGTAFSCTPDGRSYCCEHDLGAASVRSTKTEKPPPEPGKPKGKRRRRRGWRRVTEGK

[2] = biological target: T2, Apoptotic protease-activating factor 1 (Homo sapiens, UniProt O14727); assay type: functional
T2 sequence (O14727 whole entry): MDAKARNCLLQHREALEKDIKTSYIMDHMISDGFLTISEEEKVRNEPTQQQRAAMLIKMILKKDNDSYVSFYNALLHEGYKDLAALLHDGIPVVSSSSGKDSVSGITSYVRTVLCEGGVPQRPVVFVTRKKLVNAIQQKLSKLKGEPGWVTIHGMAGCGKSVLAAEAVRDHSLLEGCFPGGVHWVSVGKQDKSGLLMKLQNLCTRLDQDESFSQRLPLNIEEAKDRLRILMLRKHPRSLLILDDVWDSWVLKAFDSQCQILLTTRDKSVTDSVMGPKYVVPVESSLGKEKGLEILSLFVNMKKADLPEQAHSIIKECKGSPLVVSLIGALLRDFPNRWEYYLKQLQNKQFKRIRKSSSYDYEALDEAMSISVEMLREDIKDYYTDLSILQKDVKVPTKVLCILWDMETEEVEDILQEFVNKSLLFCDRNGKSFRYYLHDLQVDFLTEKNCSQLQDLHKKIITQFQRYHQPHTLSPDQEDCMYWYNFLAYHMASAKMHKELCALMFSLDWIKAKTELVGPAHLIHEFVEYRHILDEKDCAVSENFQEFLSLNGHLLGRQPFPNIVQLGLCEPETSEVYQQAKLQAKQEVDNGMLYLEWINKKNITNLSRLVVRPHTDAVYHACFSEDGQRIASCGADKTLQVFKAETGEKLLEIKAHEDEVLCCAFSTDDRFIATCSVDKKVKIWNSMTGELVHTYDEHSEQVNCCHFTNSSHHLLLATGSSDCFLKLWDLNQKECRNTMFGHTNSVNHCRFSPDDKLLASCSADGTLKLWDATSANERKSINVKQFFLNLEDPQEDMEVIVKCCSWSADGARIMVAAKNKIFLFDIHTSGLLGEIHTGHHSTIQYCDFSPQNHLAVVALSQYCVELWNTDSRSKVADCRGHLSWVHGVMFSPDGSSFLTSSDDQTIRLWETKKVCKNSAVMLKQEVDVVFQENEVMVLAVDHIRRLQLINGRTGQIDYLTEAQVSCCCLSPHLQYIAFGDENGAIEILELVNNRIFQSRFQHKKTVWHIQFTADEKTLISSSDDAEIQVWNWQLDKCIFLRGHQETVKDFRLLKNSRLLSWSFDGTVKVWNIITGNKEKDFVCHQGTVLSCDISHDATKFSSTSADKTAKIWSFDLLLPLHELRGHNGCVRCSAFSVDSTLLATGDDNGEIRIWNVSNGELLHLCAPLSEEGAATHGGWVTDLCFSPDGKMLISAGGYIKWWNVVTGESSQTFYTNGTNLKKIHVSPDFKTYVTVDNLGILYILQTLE

[3] = system: Streptococcus sp. 'group A'; experiment: growth inhibition of control SK(-) GAS strain, dose response, counter-screen for streptokinase expression inhibitor project, luminescence, kanamycin, BacTiterGlo, confirmation (AID 1900); assay type: functional, organism-based
[4] = Luminescence Cell-Based Dose Response HTS to Identify Inhibitors of 5'UTR Stem-Loop Driven Prion Protein mRNA Translation in H4 Neuroglioblastoma Cells. [Related pubchem assays: 1827 (Project Summary), 1813 (Primary HTS)]; assay type: functional
SUMO-activating enzyme = SUMO-activating enzyme (Homo sapiens, UniProt Q9UBT2); experiment: inhibitors of in vitro SUMOylation cascade, primary screen, biochemical, HTRF, uHTS (AID 2006); assay type: protein-complex assay
Sequence of SUMO-activating enzyme (Q9UBE0 whole entry): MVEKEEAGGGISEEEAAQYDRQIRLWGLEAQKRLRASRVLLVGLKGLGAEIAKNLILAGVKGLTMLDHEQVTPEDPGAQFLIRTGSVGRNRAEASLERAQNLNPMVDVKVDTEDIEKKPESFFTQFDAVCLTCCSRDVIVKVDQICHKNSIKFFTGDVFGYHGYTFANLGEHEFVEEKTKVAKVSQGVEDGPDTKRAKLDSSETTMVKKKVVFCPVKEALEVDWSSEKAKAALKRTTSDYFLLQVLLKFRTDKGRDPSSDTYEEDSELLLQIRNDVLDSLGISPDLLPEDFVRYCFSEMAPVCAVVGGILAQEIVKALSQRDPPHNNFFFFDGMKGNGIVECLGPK
Sequence of SUMO-activating enzyme (Q9UBT2 whole entry): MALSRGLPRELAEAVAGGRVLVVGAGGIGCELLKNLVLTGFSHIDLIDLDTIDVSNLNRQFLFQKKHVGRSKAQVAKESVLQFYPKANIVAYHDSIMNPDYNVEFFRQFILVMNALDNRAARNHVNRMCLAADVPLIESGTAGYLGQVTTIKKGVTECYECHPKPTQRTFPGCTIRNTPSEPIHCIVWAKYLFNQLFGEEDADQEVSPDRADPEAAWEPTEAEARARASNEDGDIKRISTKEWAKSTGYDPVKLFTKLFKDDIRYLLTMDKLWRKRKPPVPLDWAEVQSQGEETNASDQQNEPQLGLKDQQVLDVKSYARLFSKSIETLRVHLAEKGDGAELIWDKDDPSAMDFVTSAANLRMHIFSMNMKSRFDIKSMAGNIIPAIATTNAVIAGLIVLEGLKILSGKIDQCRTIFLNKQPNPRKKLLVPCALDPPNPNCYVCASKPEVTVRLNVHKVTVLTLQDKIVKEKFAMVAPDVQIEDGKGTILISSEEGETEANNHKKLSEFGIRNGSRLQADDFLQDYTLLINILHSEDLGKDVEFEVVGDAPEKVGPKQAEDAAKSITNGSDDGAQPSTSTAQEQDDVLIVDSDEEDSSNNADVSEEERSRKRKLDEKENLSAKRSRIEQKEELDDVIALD

| SMILES | AC50 [1] | IC50 [2] | EC50 [3] | EC50 [4] | IC50 (SUMO-activating enzyme) |
| --- | --- | --- | --- | --- | --- |
| COc1ccc(NC(=S)Nc2ccc3nsnc3c2)cc1 | 3.57 µM (active) | 10.8 µM (active) |  |  |  |
| CC(C)(C)c1cc[n+](C2=C([N-]S(=O)(=O)c3ccccc3)C(=O)c3ccccc3C2=O)cc1 | 2.63 µM (active) |  | 4.89 µM (active) | 25 µM (active) |  |
| O=C1C=C(Nc2ccccc2C(=O)O)c2ccccc2C1=O |  | 3.84 µM (active) |  |  | 19.8 µM (active) |
